The values below come from article PMC10746543, “Design principles for cyclin K molecular glue degraders” (Nature Chemical Biology, 2023).

Molecules are shown by their SMILES. Values joined by “and” are separate entries in the source; they are usually repeats but may differ in a detail not shown here. Equal entries are not always repeated.

One assay has as its target CDK12–cyclin K (Homo sapiens, UniProt Q9NYV4). In words: Lanthascreen kinase binding assay, CDK12. The conditions noted are these: for Lanthascreen raw signal, sheet CDK12: duplicates. The procedure: Lanthascreen experiments were performed using commercially available reagents (Thermo Fisher) and according to the manufacturer’s instructions.
For the next assay, the target named is CDK12. On the set-up: method as in PMID 30065029. The settings on record: read-out: CDK12 binding affinity; cited from earlier work.

Chain of CDK12–cyclin K (Q9NYV4 713-1052): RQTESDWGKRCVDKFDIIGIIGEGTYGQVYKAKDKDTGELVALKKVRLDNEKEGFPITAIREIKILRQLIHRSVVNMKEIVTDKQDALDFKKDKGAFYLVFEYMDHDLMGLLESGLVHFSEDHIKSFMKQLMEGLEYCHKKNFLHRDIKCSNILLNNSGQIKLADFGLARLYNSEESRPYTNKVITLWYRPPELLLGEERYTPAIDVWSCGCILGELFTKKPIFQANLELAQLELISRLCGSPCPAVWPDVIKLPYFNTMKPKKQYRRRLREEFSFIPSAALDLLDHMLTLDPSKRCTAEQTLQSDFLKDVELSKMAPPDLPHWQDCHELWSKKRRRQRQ
Chain of CDK12–cyclin K (O75909 1-267 partner limits assumed): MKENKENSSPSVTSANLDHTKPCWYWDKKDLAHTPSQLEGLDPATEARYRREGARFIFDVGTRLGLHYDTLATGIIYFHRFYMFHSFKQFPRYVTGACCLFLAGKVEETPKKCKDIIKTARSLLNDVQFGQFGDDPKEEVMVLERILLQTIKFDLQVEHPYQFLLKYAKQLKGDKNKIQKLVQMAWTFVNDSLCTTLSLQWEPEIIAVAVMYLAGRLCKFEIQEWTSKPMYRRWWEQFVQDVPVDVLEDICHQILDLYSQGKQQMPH

For `C[C@H](C(=O)Nc1nc2ccccc2[nH]1)N1Cc2ccccc2C1=O` [compound 919278], at CDK12–cyclin K (Lanthascreen, average, Extended Data Fig. 8, read-out: CDK12 IC50), the IC50 was 1.34 µM. In addition, the “Lanthascreen raw signal, sheet CDK12” value was 0.01141 and 0.01078 at CDK12–cyclin K (compound 0.038147 nM, series r13); 0.007974 and 0.007894 on CDK12–cyclin K (compound 0.038147 nM, series r49); 0.01172 and 0.01127 on CDK12–cyclin K (compound 0.152588 nM, series r13); 0.009529 and 0.009772 at CDK12–cyclin K (compound 0.152588 nM, series r49); 0.01156 and 0.01218 at CDK12–cyclin K (compound 0.610352 nM, series r13); 0.00969 and 0.009867 at CDK12–cyclin K (compound 0.610352 nM, series r49). In addition, the “Lanthascreen raw signal, sheet CDK12” value on CDK12–cyclin K (compound 9.76563 nM, series r13) is 0.01168 and 0.01068; at CDK12–cyclin K (compound 9.76563 nM, series r49) it was 0.008416 and 0.00874; at CDK12–cyclin K (compound 39.0625 nM, series r13) it was 0.01187 and 0.01164; at CDK12–cyclin K (compound 39.0625 nM, series r49), 0.009257 and 0.00975; on CDK12–cyclin K (compound 156.25 nM, series r13), 0.01128 and 0.01164; at CDK12–cyclin K (compound 156.25 nM, series r49), 0.009429 and 0.008734. Moreover, the “Lanthascreen raw signal, sheet CDK12” value at CDK12–cyclin K (compound 625 nM, series r13) was 0.01093 and 0.01047; on CDK12–cyclin K (compound 625 nM, series r49) it was 0.007601 and 0.007861; on CDK12–cyclin K (compound 2500 nM, series r13) it was 0.009465 and 0.008988; at CDK12–cyclin K (compound 2500 nM, series r49), 0.006693 and 0.006957; at CDK12–cyclin K (compound 10000 nM, series r13), 0.008087 and 0.007713; at CDK12–cyclin K (compound 10000 nM, series r49), 0.006488 and 0.006166. The Kd at CDK12 was 5.6 µM.
